In ChEMBL document CHEMBL2034954, “Synthesis and antimycobacterial activity of novel 1,3-dimethylisocyanurate derivatives” (Eur J Med Chem, 2012):
Converted amounts (≈) assume the structure as drawn. The source made the active and inactive calls. The calls are words filed in the database; no cut-off is given here.

Assays:
[1] = tested on: Mycobacterium tuberculosis; experiment: Bacteriostatic activity against Mycobacterium tuberculosis H37Rv at 1 ug/mL assessed as growth index after 4 days by radiometric growth assay (reference value: 210 growth index); type: functional
[2] = tested on: Mycobacterium tuberculosis; experiment: Bacteriostatic activity against Mycobacterium tuberculosis H37Rv at 1 ug/mL assessed as growth index after 3 days by radiometric growth assay (reference value: 210 growth index); type: functional
[3] = tested on: Mycobacterium tuberculosis; experiment: Bacteriostatic activity against Mycobacterium tuberculosis H37Rv at 1 ug/mL assessed as growth index after 7 days by radiometric growth assay (reference value: 210 growth index); type: functional
[4] = tested on: Mycobacterium tuberculosis; experiment: Antitubercular activity against Mycobacterium tuberculosis H37Rv after […] by radiometric growth assay; type: functional
[5] = tested on: Mycobacterium tuberculosis; experiment: Bacteriostatic activity against Mycobacterium tuberculosis H37Rv at 1 ug/mL assessed as growth index after 10 days by radiometric growth assay (reference value: 210 growth index); type: functional
[6] = tested on: Mycobacterium tuberculosis; experiment: Bacteriostatic activity against Mycobacterium tuberculosis H37Rv at 1 ug/mL assessed as growth index after 5 days by radiometric growth assay (reference value: 210 growth index); type: functional
[7] = tested on: Mycobacterium tuberculosis; experiment: Bacteriostatic activity against Mycobacterium tuberculosis H37Rv at 0.1 ug/mL assessed as growth index after 3 days by radiometric growth assay (reference value: 210 growth index); type: functional
[8] = tested on: Mycobacterium tuberculosis; experiment: Bacteriostatic activity against Mycobacterium tuberculosis H37Rv at 0.1 ug/mL assessed as growth index after 7 days by radiometric growth assay (reference value: 210 growth index); type: functional
[9] = tested on: Mycobacterium tuberculosis; experiment: Bacteriostatic activity against Mycobacterium tuberculosis H37Rv at 0.1 ug/mL assessed as growth index after 5 days by radiometric growth assay (reference value: 210 growth index); type: functional
[10] = tested on: Mycobacterium tuberculosis; experiment: Bacteriostatic activity against Mycobacterium tuberculosis H37Rv at 0.1 ug/mL assessed as growth index after 4 days by radiometric growth assay (reference value: 210 growth index); type: functional
[11] = tested on: Mycobacterium tuberculosis; experiment: Bacteriostatic activity against Mycobacterium tuberculosis H37Rv at 0.5 ug/mL assessed as growth index after 10 days by radiometric growth assay (reference value: 210 growth index); type: functional
[12] = tested on: Mycobacterium tuberculosis; experiment: Bacteriostatic activity against Mycobacterium tuberculosis H37Rv at 0.5 ug/mL assessed as growth index after 3 days by radiometric growth assay (reference value: 210 growth index); type: functional
[13] = tested on: Mycobacterium tuberculosis; experiment: Bacteriostatic activity against Mycobacterium tuberculosis H37Rv at 0.5 ug/mL assessed as growth index after 7 days by radiometric growth assay (reference value: 210 growth index); type: functional
[14] = tested on: Mycobacterium tuberculosis; experiment: Bacteriostatic activity against Mycobacterium tuberculosis H37Rv at 0.5 ug/mL assessed as growth index after 4 days by radiometric growth assay (reference value: 210 growth index); type: functional
[15] = tested on: Mycobacterium tuberculosis; experiment: Bacteriostatic activity against Mycobacterium tuberculosis H37Rv at 0.5 ug/mL assessed as growth index after 5 days by radiometric growth assay (reference value: 210 growth index); type: functional
[16] = tested on: Mycobacterium tuberculosis; experiment: Antitubercular activity against Mycobacterium tuberculosis H37Rv at 1 ug/mL by radiometric growth assay; type: functional, organism-based
[17] = tested on: Mycobacterium tuberculosis; experiment: Antitubercular activity against Mycobacterium tuberculosis H37Rv at 10 ug/mL by radiometric growth assay; type: functional, organism-based
[18] = tested on: Mycobacterium tuberculosis; experiment: Bacteriostatic activity against Mycobacterium tuberculosis H37Rv at 5 ug/mL assessed as growth index after 7 days by radiometric growth assay (reference value: 210 growth index); type: functional
[19] = tested on: Mycobacterium tuberculosis; experiment: Bacteriostatic activity against Mycobacterium tuberculosis H37Rv at 5 ug/mL assessed as growth index after 4 days by radiometric growth assay (reference value: 210 growth index); type: functional
[20] = tested on: Mycobacterium tuberculosis; experiment: Bacteriostatic activity against Mycobacterium tuberculosis H37Rv at 5 ug/mL assessed as growth index after 3 days by radiometric growth assay (reference value: 210 growth index); type: functional
[21] = tested on: Mycobacterium tuberculosis; experiment: Bacteriostatic activity against Mycobacterium tuberculosis H37Rv at 5 ug/mL assessed as growth index after 5 days by radiometric growth assay (reference value: 210 growth index); type: functional
[22] = tested on: Mycobacterium tuberculosis; experiment: Bacteriostatic activity against Mycobacterium tuberculosis H37Rv at 25 ug/mL assessed as growth index after 3 days by radiometric growth assay (reference value: 210 growth index); type: functional
[23] = tested on: Mycobacterium tuberculosis; experiment: Antitubercular activity against Mycobacterium tuberculosis H37Rv at 80 ug/mL by radiometric growth assay; type: functional, organism-based
[24] = tested on: Mycobacterium tuberculosis; experiment: Antitubercular activity against Mycobacterium tuberculosis H37Rv at 40 ug/mL by radiometric growth assay; type: functional, organism-based
[25] = tested on: Mycobacterium tuberculosis; experiment: Bacteriostatic activity against Mycobacterium tuberculosis H37Rv at 5 ug/mL assessed as growth index after 10 days by radiometric growth assay (reference value: 210 growth index); type: functional
[26] = tested on: Mycobacterium tuberculosis; experiment: Bacteriostatic activity against Mycobacterium tuberculosis H37Rv at 0.1 ug/mL assessed as growth index after 10 days by radiometric growth assay (reference value: 210 growth index); type: functional

SMILES | Growth_index [1] | Growth_index [2] | Growth_index [3] | MIC [4] | Growth_index [5] | Growth_index [6] | further results
Cn1c(=O)n(C)c(=O)n(CCCCS(=O)(=O)CC(N)=O)c1=O | 35 | 20 | 54 | 1 µg/mL (≈ 2.99 µM) | 54 | 54 | –
Cn1c(=O)n(C)c(=O)n(CC(O)CS(=O)(=O)CC(=O)NN)c1=O (stereo not given) | 25 | 1 | 35 | 0.1 µg/mL (≈ 0.285 µM) | 35 | 30 | –
Cn1c(=O)n(C)c(=O)n(CCCCCCS(=O)(=O)CC(=O)NN)c1=O | – | – | – | 0.1 µg/mL (≈ 0.265 µM) | – | – | Growth_index [7]: 15; Growth_index [8]: >90; Growth_index [9]: 31; Growth_index [10]: 27
Cn1c(=O)n(C)c(=O)n(CCS(=O)(=O)CC(=O)NN)c1=O | 24 | 18 | 33 | 0.5 µg/mL (≈ 1.56 µM) | 33 | 33 | Growth_index [11]: 53; Growth_index [12]: 25; Growth_index [13]: 40; Growth_index [14]: 40; Growth_index [15]: 40
NNC(=O)c1ccncc1 [ISONIAZID] | – | – | – | 0.1 µg/mL (≈ 0.729 µM) | – | – | Activity [16]: Active; Activity [17]: Active
Cn1c(=O)n(C)c(=O)n(CCC[S+]([O-])CC(N)=O)c1=O (stereo not given) | 41 | 7 | – | 1 µg/mL (≈ 3.29 µM) | – | >90 | –
Cn1c(=O)n(C)c(=O)n(C[S+]([O-])CC(=O)NN)c1=O (stereo not given) | 48 | 15 | >90 | 1 µg/mL (≈ 3.43 µM) | – | 78 | Growth_index [18]: >90; Growth_index [19]: 17; Growth_index [20]: 10; Growth_index [21]: 67
Cn1c(=O)n(C)c(=O)n(CC[S+]([O-])CC(N)=O)c1=O (stereo not given) | – | – | – | 10 µg/mL (≈ 34.4 µM) | – | – | Growth_index [22]: >90
Cn1c(=O)n(C)c(=O)n(CCCS(=O)(=O)CC(N)=O)c1=O | 29 | 20 | 39 | 1 µg/mL (≈ 3.12 µM) | 39 | 39 | –
Cn1c(=O)n(C)c(=O)n(CCCCCC[S+]([O-])CC(=O)NN)c1=O (stereo not given) | 15 | 10 | >90 | 0.5 µg/mL (≈ 1.38 µM) | – | 15 | –
Cn1c(=O)n(C)c(=O)n(CCCCCCS(=O)(=O)CC(N)=O)c1=O | 23 | 5 | >90 | 1 µg/mL (≈ 2.76 µM) | – | 53 | –
Cn1c(=O)n(C)c(=O)n(CCCCS(=O)(=O)CC(=O)NN)c1=O | 34 | 18 | 73 | 1 µg/mL (≈ 2.86 µM) | >90 | 73 | –
Cn1c(=O)n(C)c(=O)n(CCCCCCCCCC[S+]([O-])CC(=O)NN)c1=O (stereo not given) | 20 | 0 | 22 | 0.5 µg/mL (≈ 1.2 µM) | 22 | 22 | –
Cn1c(=O)n(C)c(=O)n(CCCCCS(=O)(=O)CC(=O)NN)c1=O | 50 | 14 | 50 | 0.5 µg/mL (≈ 1.38 µM) | 50 | 50 | Growth_index [12]: 12; Growth_index [13]: >90; Growth_index [14]: 33; Growth_index [15]: 50
Cn1c(=O)n(C)c(=O)n(CCCCC[S+]([O-])CC(N)=O)c1=O (stereo not given) | 30 | 12 | >90 | 0.1 µg/mL (≈ 0.301 µM) | – | 30 | Growth_index [7]: 23; Growth_index [11]: 60; Growth_index [12]: 26; Growth_index [8]: >90; Growth_index [13]: 50; Growth_index [14]: 37; Growth_index [9]: 30; Growth_index [10]: 27; Growth_index [15]: 38
Cn1c(=O)n(C)c(=O)n(CCS(=O)(=O)CC(N)=O)c1=O | – | – | – | 25 µg/mL (≈ 81.6 µM) | – | – | Growth_index [22]: >90
CO[C@H]1/C=C/O[C@@]2(C)Oc3c(C)c(O)c4c(O)c(c(/C=N/N5CCN(C)CC5)c(O)c4c3C2=O)NC(=O)/C(C)=C\C=C\[C@H](C)[C@H](O)[C@@H](C)[C@@H](O)[C@@H](C)[C@H](OC(C)=O)[C@@H]1C | – | – | – | – | – | – | Activity [23]: Active; Activity [24]: Active
Cn1c(=O)n(C)c(=O)n(CCCCCS(=O)(=O)CC(N)=O)c1=O | 20 | 15 | 23 | 1 µg/mL (≈ 2.87 µM) | 23 | 23 | –
Cn1c(=O)n(C)c(=O)n(C[S+]([O-])CC(N)=O)c1=O (stereo not given) | – | – | – | 0.1 µg/mL (≈ 0.362 µM) | – | – | Growth_index [7]: 30; Growth_index [11]: 50; Growth_index [12]: 32; Growth_index [8]: >90; Growth_index [13]: 50; Growth_index [14]: 50; Growth_index [9]: 36; Growth_index [10]: 30; Growth_index [15]: 50
Cn1c(=O)n(C)c(=O)n(CCCS(=O)(=O)CC(=O)NN)c1=O | 18 | 5 | 55 | 1 µg/mL (≈ 2.98 µM) | 55 | 55 | Growth_index [12]: 15; Growth_index [14]: 30; Growth_index [15]: >90
Cn1c(=O)n(C)c(=O)n(CCCCCC[S+]([O-])CC(N)=O)c1=O (stereo not given) | 45 | 25 | 54 | 1 µg/mL (≈ 2.89 µM) | >90 | 47 | Growth_index [18]: 66; Growth_index [25]: 66; Growth_index [19]: 31; Growth_index [20]: 15; Growth_index [21]: 42
C=CCn1c(=O)n(CC=C)c(=O)n(CC(O)CS(=O)(=O)CC(=O)NN)c1=O (stereo not given) | – | – | – | 0.1 µg/mL (≈ 0.248 µM) | – | – | –
Cn1c(=O)n(C)c(=O)n(CS(=O)(=O)CC(N)=O)c1=O | – | – | – | 1 µg/mL (≈ 3.42 µM) | – | – | –
Cn1c(=O)n(C)c(=O)n(CS(=O)(=O)CC(=O)NN)c1=O | 20 | 20 | 20 | 0.1 µg/mL (≈ 0.325 µM) | 20 | – | Growth_index [7]: 35; Growth_index [11]: 52; Growth_index [12]: 25; Growth_index [8]: 47; Growth_index [26]: 47; Growth_index [13]: 52; Growth_index [14]: 41; Growth_index [9]: 47; Growth_index [10]: 43; Growth_index [15]: 52
CC1COc2c(N3CCN(C)CC3)c(F)cc3c(=O)c(C(=O)O)cn1c23 (stereo not given) | – | – | – | – | – | – | Activity [17]: Active
Cn1c(=O)n(C)c(=O)n(CC[S+]([O-])CC(=O)NN)c1=O (stereo not given) | 22 | 10 | 50 | 0.5 µg/mL (≈ 1.64 µM) | 50 | 40 | Growth_index [12]: 30; Growth_index [14]: >90
Cn1c(=O)n(C)c(=O)n(CCC[S+]([O-])CC(=O)NN)c1=O (stereo not given) | 5 | 5 | 5 | 1 µg/mL (≈ 3.13 µM) | 55 | 5 | –
